Experiments:
Format in all cases: in vivo
[1] = test system: C57Bl6 mice; experiment: Dose response on bile physiology after single oral gavage in mice
Description: FIG. 16A-J: Increase of bile secretion following activation of P2Y13r pathway in mice. C57Bl/6J mice (n=10) were fasted for 2 h and then intravenously injected with Cangrelor® or Compound IIa (10 nmoles/kg). Four hours later the gallbladders were removed and analyzed for: Bile acids content (FIG. 16A); Bile cholesterol content (FIG. 16B). C57Bl/6J mice (n=10) were fasted for 2 h followed by single oral dose of P2Y13r agonist Compound IIa at 3, 30 or 300 μg/kg. Six hours later bile acids contents (FIG. 16C); bile cholesterol content (FIG. 16D), and bile acid content of liver (FIG. 16E) were evaluated using HPLC and enzymatic kits for gallbladers. Plasma samples were collected at time 0 and after 6 h of treatment, then analyzed for: total cholesterol (▴), unesterified cholesterol (●), esterified cholesterol (▪) and HDL cholesterol (▾) determined using either enzymatic kits or Lipoprint® for HDL cholesterol (FIG. 16F). C57Bl/6J mice (n=5) were intravenously injected with [^3H]-cholesterol-labelled mouse HDL (FIG. 16G), [^3H]-cholesteryl oleate-labelled mouse HDL (FIG. 16H) or [^3H]-cholesterol-labelled mouse LDL (FIG. 16I), and with Cangrelor® or Compound IIa (10 nmoles/kg). Radioactivity present in the liver was determined 2 hours later for the HDL or 5 hours later for the LDL. Cholesterol content of feces from treated animals (100 μg/kg) was determined by Charge aerosol detection (FIG. 16J). *p<0.05, **p<0.01.
The dose response after oral gavage was determined for illustrative compounds of the invention. The chosen doses were 0.003, 0.03 and 0.3 mg/kg. The selected compounds of the invention were administrated by oral gavage and 6 hours later the mice are sacrificed and the bile content was analyzed (FIGS. 6-11).
(§1) Bile acids were diluted in PBS (1:5000) and the concentration was measured according to the manufacturer protocol with slight modifications. Concentrations of bile acids in the standard curve were varied from […] and the enzymatic reaction was performed for 20 minutes. 4 μl of 1:5000 bile dilution was used for concentration determination.
Bile phospholipids were measured according to the manufacturer protocol. Briefly, the standards were varied from 0 to 20 μg/ml and 4 μl of bile was measured in the assay. The reaction was performed for 5 minutes at 37° C.
Bile phospholipids were measured according to the manufacturer protocol. Briefly, the standards were varied from 0 to 60 μg/ml and 10 μl of bile (dilution 1:10) was measured in the assay. The reaction was performed for 5 minutes at 37° C.

[2] = test system: C57Bl6 mice; experiment: Bile acids physiology after IV injection in mice; settings: intravenously 10 nmol/kg, after 4 h; effect slightly higher than with Cangrelor
Description: FIG. 5A-B: Single-dose effect of the illustrative compounds of the invention on bile acids secretion after IV injection. Mice were fasted for 2 hours and then injected in the caudal vein with the selected molecules (10 nmol/kg) in PBS solution (100 μl). 4 hours later the bile content was analyzed. FIG. 5A. Data are expressed as the concentration of bile acids. FIG. 5B. Data are expressed as the pool of bile acids per mouse (*p<0.05, **p<0.005, ***p<0.0001). Group of animals n=5.
Bile acids are derived from cholesterol and their synthesis is the predominant pathway for catabolism of cholesterol. The HDL uptake by the liver is directly connected with the bile acids secretion and the bile cholesterol clearance. […] An increase of bile acids concentration as well as of the bile volume was observed. All the compounds responded as well as or even better than the control compound (Reference Compound).
as §1

[3] = test system: apoE −/− mice; experiment: ApoE−/− mice flow cessation model (ligated carotid, Western diet)
Description: FIG. 17A-J: Dose-response effect of P2Y13 agonist on atherosclerotic plaque progression in ApoE^−/− mice. ApoE^−/− mice (n=7) were ligated on the upper part of the left carotids. On the day of the surgery the animals were placed on a Western diet and given an oral gavage of vehicle or increasing doses of Compound IIa. Ligated carotids were lipid extracted in 2:1 chloroform/methanol. FIG. 17A: the concentrations in unesterified cholesterol (dark bars) and total cholesterol (superimposed gray bars) were measured by HPLC. FIG. 17E and FIG. 17H: hematoxylin eosin staining of longitudinal sections of ApoE^−/− mice carotids. FIG. 17F and FIG. 17I: Oil Red O staining of longitudinal sections of ApoE^−/− mice carotids. FIG. 17G and FIG. 17J: CD-68 antibody staining of longitudinal sections of ApoE^−/− mice carotids. FIG. 17B: quantification of the intima/media ratio (n=10). FIG. 17C: Oil Red O positive staining quantification (n=10). FIG. 17D: CD68 antibody staining quantification (n=10). The mice were dosed for 2 weeks with vehicle (FIG. 17E, FIG. 17F and FIG. 17G) or Compound IIa at 100 μg/kg (FIG. 17H, FIG. 17I and FIG. 17J).
ApoE^−/− mice “flow cessation model”: Left carotid of apoE^−/− mice were ligatured and placed on Western diet. These mice were given Compound IIa once a day at 100 μg/kg (0.5% CMC, 0.2% Tween80) for 2 weeks.
The left carotid fixed in formalin was embedded in OCT and frozen at −20° C. Four step frozen sections of 50 μm separated one from the other were processed and stained with Oil red O (ORO). Macrophages were detected using primary rat monoclonal anti CD-68 antibody (Abcam).
The effect of the stimulation of the P2Y13r pathway by the agonists on the atherosclerotic plaque lesions in apoE −/− mice that are very susceptible to develop atherosclerosis on a short term Western (i.e. high-cholesterol) diet was investigated. […] The quantification of plaque components by histo-pathological analysis of the treated carotids with hematoxylin-eosin (FIG. 17B, E, H), oil-red O staining (FIG. 17C, F, I) and with CD68 antibody (specific of the macrophages), (FIG. 17D, G, J) further confirmed this observation.

Question: `CN(C)c1ncc(CN2CCC(c3cc(O)nc(N4CCOCC4)n3)CC2)cn1` [Compound IIa, 6-[1-(2-Dimethylaminopyrimidin-5-ylmethyl)-piperidin-4-yl]-2-morpholin-4-yl-pyrimidin-4-ol] was tested. Which “plasma cholesterol and HDL” value ([1]; after 4 h of treatment, exception: unesterified cholesterol) did it give?
Answer: The value was “not significantly affected”.

Question: And the “dose at which an effect on bile acids, bile cholesterol and bile phospholipids was shown” value ([1]; oral gavage 0.003, 0.03 and 0.3 mg/kg, bile analyzed 6 hours later)?
Answer: Its value is 3 µg/kg.

Question: What about the “bile acid and cholesterol secretion in the bile” value ([1]; oral gavage, doses as low as 30 μg/kg) of the same compound?
Answer: The value was “stimulation”.

Question: What about the “liver bile acid content” value ([1]; oral, 30 μg/kg) of the same compound?
Answer: Its value is “increase”.

Question: And the “bile acids (BA) and free cholesterol secretion into bile” value [2]?
Answer: Its value is “increase”.

Question: And the “cholesterol deposit in non-inflammatory right carotids” value ([3]; 100 μg/kg, vehicle 18.2+/−3.6)?
Answer: Its value is 7.5+/−3.4 nmole/mg of tissue.

Question: What about the “progression of the atherosclerosis lesions (lesion cholesterol content) compared to control animals” value ([3]; oral dosing for 2 weeks along with high-cholesterol diet, ligated carotid) of the same compound?
Answer: The value was “dose-dependent inhibition”.

Question: And the “inhibition of the atherosclerosis progression in mice” value ([3]; summary statement)?
Answer: The value was “dramatic effect”.

Question: What about the “lipid content of the carotids (staining)” value ([3]; treated animals, 2 weeks) of the same compound?
Answer: The value was “decrease”.

Source: US10220040B2, “Compounds, compositions and methods useful for cholesterol mobilization” (Cerenis Therapeutics Holding SA, priority 2010, dated 2019)
